# Patent US10758534B2 (Vertex Pharmaceuticals Incorporated, priority 2014, dated 2020)
# Target: T1, F508del (Homo sapiens, UniProt P13569, DEL508-508)
# T1 construct: expressed in transfected cells
# Experiment: Protocol 1: membrane potential optical assay (FLIPR III, voltage sensing dye), identification of potentiator compounds
# Type: cell-based
# Details: Table 3, compounds of Table 1
# Procedure, shortened: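 NIH 3T3 fibroblasts stably expressing F508del were cultured at 27° C for 24 hrs for temperature correction, then treated with compounds or DMSO and loaded with a voltage-sensing redistribution dye. Forskolin added with a Cl⁻ gradient activated the channel; membrane-potential fluorescence on FLIPR III reported increased gating.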
# T1 sequence (P13569 with tags, fused parts or gaps DEL508-508): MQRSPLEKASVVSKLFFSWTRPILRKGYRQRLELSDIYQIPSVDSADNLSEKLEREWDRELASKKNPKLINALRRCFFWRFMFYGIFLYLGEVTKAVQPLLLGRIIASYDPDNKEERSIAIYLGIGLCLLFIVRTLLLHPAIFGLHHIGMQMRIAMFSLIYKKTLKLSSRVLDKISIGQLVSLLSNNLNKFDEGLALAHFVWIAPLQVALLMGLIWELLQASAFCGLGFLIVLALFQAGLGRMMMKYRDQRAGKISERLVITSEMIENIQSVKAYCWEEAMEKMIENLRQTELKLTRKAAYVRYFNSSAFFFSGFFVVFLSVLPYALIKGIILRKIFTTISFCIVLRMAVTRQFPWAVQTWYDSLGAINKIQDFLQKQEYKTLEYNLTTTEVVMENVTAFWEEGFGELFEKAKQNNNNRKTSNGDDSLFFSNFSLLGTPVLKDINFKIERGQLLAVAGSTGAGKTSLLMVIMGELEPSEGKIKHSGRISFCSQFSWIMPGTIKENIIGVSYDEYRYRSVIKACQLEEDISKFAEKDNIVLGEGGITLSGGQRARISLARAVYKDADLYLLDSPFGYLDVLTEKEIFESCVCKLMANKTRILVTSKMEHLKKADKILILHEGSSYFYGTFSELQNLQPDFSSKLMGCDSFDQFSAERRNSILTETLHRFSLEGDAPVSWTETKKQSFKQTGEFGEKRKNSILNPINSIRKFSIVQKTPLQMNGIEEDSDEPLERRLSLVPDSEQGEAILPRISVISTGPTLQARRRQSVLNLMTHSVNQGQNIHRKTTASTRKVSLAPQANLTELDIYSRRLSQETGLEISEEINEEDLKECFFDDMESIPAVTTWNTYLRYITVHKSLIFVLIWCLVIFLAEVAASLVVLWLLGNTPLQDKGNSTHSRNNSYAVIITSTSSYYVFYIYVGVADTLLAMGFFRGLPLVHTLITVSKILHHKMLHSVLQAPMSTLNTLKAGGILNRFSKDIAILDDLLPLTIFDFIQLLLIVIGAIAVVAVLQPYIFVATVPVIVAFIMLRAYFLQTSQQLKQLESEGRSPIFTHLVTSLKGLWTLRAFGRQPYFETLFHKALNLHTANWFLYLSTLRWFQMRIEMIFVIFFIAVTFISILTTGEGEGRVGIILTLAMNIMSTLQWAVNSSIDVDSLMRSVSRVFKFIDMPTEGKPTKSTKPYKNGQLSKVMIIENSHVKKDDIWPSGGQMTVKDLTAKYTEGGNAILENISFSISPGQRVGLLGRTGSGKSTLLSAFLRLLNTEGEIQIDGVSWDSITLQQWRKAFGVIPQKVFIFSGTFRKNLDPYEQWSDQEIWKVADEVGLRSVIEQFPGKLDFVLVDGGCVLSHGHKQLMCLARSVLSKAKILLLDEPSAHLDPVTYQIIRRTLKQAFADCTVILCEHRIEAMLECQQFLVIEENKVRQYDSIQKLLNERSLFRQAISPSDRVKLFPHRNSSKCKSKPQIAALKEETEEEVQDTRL
row,SMILES,EC30
1,"CC(C)COc1cc(F)cc(-c2ccc(C(=O)NS(=O)(=O)c3cccc(N)n3)c(OCCC3CCCO3)n2)c1 (stereo not shown) [Compound 1604, N-[(6-amino-2-pyridyl)sulfonyl]-6-(3-fluoro-5-isobutoxy-phenyl)-2-(2-tetrahydrofuran-2-ylethoxy)pyridine-3-carboxamide]",+++ (“+++” means <3 uM)
2,"CC(C)COc1cc(F)cc(-c2ccc(C(=O)NS(=O)(=O)c3cccc(N)n3)c(OCCc3ccncc3)n2)c1 [Compound 1605, N-[(6-amino-2-pyridyl)sulfonyl]-6-(3-fluoro-5-isobutoxy-phenyl)-2-[2-(4-pyridyl)ethoxy]pyridine-3-carboxamide]",+++ (“+++” means <3 uM)
3,"CCOc1cccc2c1CN(Cc1c(C)cc(C)cc1C)C2(C)C(=O)NS(=O)(=O)c1cncs1 (stereo not shown) [Compound 1606, 4-ethoxy-1-methyl-N-thiazol-5-ylsulfonyl-2-[(2,4,6-trimethylphenyl)methyl]isoindoline-1-carboxamide]",+++ (“+++” means <3 uM)
4,"CC(C)COc1cc(F)cc(-c2ccc(C(=O)NS(=O)(=O)N3CCCC(O)C3)c(N3C[C@@H](C)CC3(C)C)n2)c1 (stereo partly drawn) [Compound 1608, 6-(3-fluoro-5-isobutoxy-phenyl)-N-[(3-hydroxy-1-piperidyl)sulfonyl]-2-[(4S)-2,2,4-trimethylpyrrolidin-1-yl]pyridine-3-carboxamide]",+++ (“+++” means <3 uM)
5,"CC[C@H]1CN(c2nc(-c3cc(F)cc(OCC(C)C)c3)ccc2C(=O)NS(=O)(=O)c2cccc(N)n2)C(C)(C)C1 [Compound 1611, N-[(6-amino-2-pyridyl)sulfonyl]-2-[(4R)-4-ethyl-2,2-dimethyl-pyrrolidin-1-yl]-6-(3-fluoro-5-isobutoxy-phenyl)pyridine-3-carboxamide]",+++ (“+++” means <3 uM)
6,"CC[C@@H]1CN(c2nc(-c3cc(F)cc(OCC(C)C)c3)ccc2C(=O)NS(=O)(=O)c2cccc(N)n2)C(C)(C)C1 [Compound 1612, N-[(6-amino-2-pyridyl)sulfonyl]-2-[(4S)-4-ethyl-2,2-dimethyl-pyrrolidin-1-yl]-6-(3-fluoro-5-isobutoxy-phenyl)pyridine-3-carboxamide]",+++ (“+++” means <3 uM)
7,"CC(C)COc1cc(F)cc(-c2ccc(C(=O)NS(=O)(=O)N3CCC[C@@H](N)C3)c(N3C[C@@H](C)CC3(C)C)n2)c1 [Compound 1614, N—[[(3R)-3-amino-1-piperidyl]sulfonyl]-6-(3-fluoro-5-isobutoxy-phenyl)-2-[(4S)-2,2,4-trimethylpyrrolidin-1-yl]pyridine-3-carboxamide]",+++ (“+++” means <3 uM)
8,"CCOc1cccc2c1CN(Cc1c(C)cc(C)cc1C)C2(C)C(=O)NS(=O)(=O)c1cccc(NC(=O)C(F)(F)F)n1 (stereo not shown) [Compound 1616, 4-ethoxy-1-methyl-N-[[6-[(2,2,2-trifluoroacetyl)amino]-2-pyridyl]sulfonyl]-2-[(2,4,6-trimethylphenyl)methyl]isoindoline-1-carboxamide]",+++ (“+++” means <3 uM)
9,"CC(C)COc1cc(-c2ccc(C(=O)NS(=O)(=O)c3cccc(N)n3)c(N3C[C@@H](C)CC3(C)C)n2)ccn1 [Compound 1618, N-[(6-amino-2-pyridyl)sulfonyl]-6-(2-isobutoxy-4-pyridyl)-2-[(4S)-2,2,4-trimethylpyrrolidin-1-yl]pyridine-3-carboxamide]",+++ (“+++” means <3 uM)
10,"CC(C)COc1cc(F)cc(-c2ccc(C(=O)NS(=O)(=O)N3CCCC3)c(N3C[C@@H](C)CC3(C)C)n2)c1 [Compound 1619, 6-(3-fluoro-5-isobutoxy-phenyl)-N-pyrrolidin-1-ylsulfonyl-2-[(4S)-2,2,4-trimethylpyrrolidin-1-yl]pyridine-3-carboxamide]",+++ (“+++” means <3 uM)
11,"CC(C)COc1ccn(-c2ccc(C(=O)NS(=O)(=O)c3cccc(N)n3)c(N3C[C@@H](C)CC3(C)C)n2)n1 [Compound 1620, N-[(6-amino-2-pyridyl)sulfonyl]-6-(3-isobutoxypyrazol-1-yl)-2-[(4S)-2,2,4-trimethylpyrrolidin-1-yl]pyridine-3-carboxamide]",+++ (“+++” means <3 uM)
12,"Cc1cccc(C)c1Cn1nc(-c2ccc3c(c2)OCOC3)cc1C(=O)NS(=O)(=O)c1ccccc1 [Compound 1621, N-(benzenesulfonyl)-5-(4H-1,3-benzodioxin-7-yl)-2-[(2,6-dimethylphenyl)methyl]pyrazole-3-carboxamide]",+++ (“+++” means <3 uM)
13,"COC1CCCCC1Oc1nc(-c2cc(F)cc(OCC(C)C)c2)ccc1C(=O)NS(=O)(=O)c1cccc(N)n1 (stereo not shown) [Compound 1622, N-[(6-amino-2-pyridyl)sulfonyl]-6-(3-fluoro-5-isobutoxy-phenyl)-2-(2-methoxycyclohexoxy)pyridine-3-carboxamide]",+++ (“+++” means <3 uM)
14,"CC(C)COc1cc(F)cc(-c2ccc(C(=O)NS(=O)(=O)c3cccc(N)n3)c(OCCc3ccccn3)n2)c1 [Compound 1625, N-[(6-amino-2-pyridyl)sulfonyl]-6-(3-fluoro-5-isobutoxy-phenyl)-2-[2-(2-pyridyl)ethoxy]pyridine-3-carboxamide]",++ (“++” means between 3 uM and 10 uM)
15,"CC(C)COc1cc(F)cc(-c2ccc(C(=O)NS(=O)(=O)c3cccc(N)n3)c(OC3CCCC3(C)C)n2)c1 (stereo not shown) [Compound 1629, N-[(6-amino-2-pyridyl)sulfonyl]-2-(2,2-dimethylcyclopentoxy)-6-(3-fluoro-5-isobutoxy-phenyl)pyridine-3-carboxamide]",+++ (“+++” means <3 uM)

# Further lines, results first:
row,EC30,SMILES
1,+++ (“+++” means <3 uM),"Cc1cc(C)c(Oc2nc(C(C)(C)C)ccc2C(=O)N=S(N)(=O)c2cccc(N)n2)c(C)c1 (stereo not shown) [Compound 1602, N-[amino-(6-amino-2-pyridyl)-oxo-$1^6-sulfanylidene]-6-tert-butyl-2-(2,4,6-trimethylphenoxy)pyridine-3-carboxamide]"
2,++ (“++” means between 3 uM and 10 uM),"C[C@@H]1CN(c2ncc(Cl)cc2C(=O)NS(=O)(=O)c2cccc(N)n2)C(C)(C)C1 [Compound 1603, N-[(6-amino-2-pyridyl)sulfonyl]-5-chloro-2-[(4S)-2,2,4-trimethylpyrrolidin-1-yl]pyridine-3-carboxamide]"
3,++ (“++” means between 3 uM and 10 uM),"C[C@@H]1CN(c2ncc(F)cc2C(=O)NS(=O)(=O)c2cccc(N)n2)C(C)(C)C1 [Compound 1607, N-[(6-amino-2-pyridyl)sulfonyl]-5-fluoro-2-[(4S)-2,2,4-trimethylpyrrolidin-1-yl]pyridine-3-carboxamide]"
4,+++ (“+++” means <3 uM),"Cc1cc(C)c(Oc2nc(C3=CC(C)(C)OC3(C)C)ccc2C(=O)NS(=O)(=O)c2cccc(N)n2)c(C)c1 [Compound 1609, N-[(6-amino-2-pyridyl)sulfonyl]-6-(2,2,5,5-tetramethyl-3-furyl)-2-(2,4,6-trimethylphenoxy)pyridine-3-carboxamide]"
5,+++ (“+++” means <3 uM),"Cc1ccc(-c2ccc(C(=O)NS(=O)(=O)c3cccc(N)n3)c(N3CC(C)CC3(C)C)n2)nc1OCC(C)(C)C (stereo not shown) [Compound 1610, N-[(6-amino-2-pyridyl)sulfonyl]-6-[6-(2,2-dimethylpropoxy)-5-methyl-2-pyridyl]-2-(2,2,4-trimethylpyrrolidin-1-yl)pyridine-3-carboxamide]"
6,+++ (“+++” means <3 uM),"C[C@@H]1CN(c2nc(C(C)(C)C)c(/C=C/C(C)(C)C)cc2C(=O)NS(=O)(=O)c2cccc(N)n2)C(C)(C)C1 [Compound 1613, N-[(6-amino-2-pyridyl)sulfonyl]-6-tert-butyl-5-[(E)-3,3-dimethylbut-1-enyl]-2-[(4S)-2,2,4-trimethylpyrrolidin-1-yl]pyridine-3-carboxamide]"
7,+++ (“+++” means <3 uM),"CC(=O)C1CC=C(c2ccc(C(=O)NS(=O)(=O)c3cccc(N)n3)c(Oc3c(C)cc(C)cc3C)n2)CC1 (stereo not shown) [Compound 1615, 6-(4-acetylcyclohexen-1-yl)-N-[(6-amino-2-pyridyl)sulfonyl]-2-(2,4,6-trimethylphenoxy)pyridine-3-carboxamide]"
8,+++ (“+++” means <3 uM),"CCC/C=C/c1cc(C(=O)NS(=O)(=O)c2cccc(N)n2)c(N2C[C@@H](C)CC2(C)C)nc1C(C)(C)C [Compound 1617, N-[(6-amino-2-pyridyl)sulfonyl]-6-tert-butyl-5-[(E)-pent-1-enyl]-2-[(4S)-2,2,4-trimethylpyrrolidin-1-yl]pyridine-3-carboxamide]"
9,+++ (“+++” means <3 uM),"Cc1nc(OC(C)C)ccc1-c1ccc(C(=O)NS(=O)(=O)c2cccc(N)n2)c(N2[C@H](C)CC[C@@H]2C)n1 [Compound 1623, N-[(6-amino-2-pyridyl)sulfonyl]-2-[(2R,5S)-2,5-dimethylpyrrolidin-1-yl]-6-(6-isopropoxy-2-methyl-3-pyridyl)pyridine-3-carboxamide]"
10,+++ (“+++” means <3 uM),"C[C@@H]1CN(c2nc(C3=CCN(C(=O)OC(C)(C)C)CC3)ccc2C(=O)NS(=O)(=O)c2cccc(N)n2)C(C)(C)C1 [Compound 1624, tert-butyl 4-[5-[(6-amino-2-pyridyl)sulfonylcarbamoyl]-6-[(4S)-2,2,4-trimethylpyrrolidin-1-yl]-2-pyridyl]-3,6-dihydro-2H-pyridine-1-carboxylate]"
11,+++ (“+++” means <3 uM),"CCO/C=C/c1cc(C(=O)NS(=O)(=O)c2cccc(N)n2)c(N2C[C@@H](C)CC2(C)C)nc1C(C)(C)C [Compound 1626, N-[(6-amino-2-pyridyl)sulfonyl]-6-tert-butyl-5-[(E)-2-ethoxyvinyl]-2-[(4S)-2,2,4-trimethylpyrrolidin-1-yl]pyridine-3-carboxamide]"
12,+++ (“+++” means <3 uM),"C[C@@H]1CN(c2nc(C3CC3)ccc2C(=O)NS(=O)(=O)c2cccc(N)n2)C(C)(C)C1 [Compound 1627, N-[(6-amino-2-pyridyl)sulfonyl]-6-cyclopropyl-2-[(4S)-2,2,4-trimethylpyrrolidin-1-yl]pyridine-3-carboxamide]"
13,+++ (“+++” means <3 uM),"CC1CN(c2nc(C(C)(C)C)c(Br)cc2C(=O)NS(=O)(=O)c2cccc(N)n2)C(C)(C)C1 (stereo not shown) [Compound 1628, N-[(6-amino-2-pyridyl)sulfonyl]-5-bromo-6-tert-butyl-2-(2,2,4-trimethylpyrrolidin-1-yl)pyridine-3-carboxamide]"
